In assay [1] the target is T1, His6-HGFR (HGFR cytoplasmic domain) (Homo sapiens, UniProt P08581).
T1 construct: made in house; host or cells: Sf9 insect cells (Spodoptera frugiperda), baculovirus, pFastBac-HT vector
Briefly: Inhibitory activity against HGFR tyrosine kinase activity (HTRF). Type of assay: biochemical. The settings on record: biotin-poly(GT), ATP, 30° C. 10 min. In outline:
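Sf9-expressed, Ni-NTA-purified N-terminal His6-tagged HGFR cytoplasmic domain (from Lys974), 30 ng, phosphorylates 250 ng biotin-poly(GT) in Hepes pH 7.4 with MgCl2, MnCl2 and Na3VO4. Reaction started with 4 μM ATP stock, run 10 min at 30° C, stopped with EDTA. Phosphotyrosine is detected by HTRF.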

Assay [2] relates to Human umbilical vein endothelial cells (HUVECs). Kind of assay: Inhibitory activity against the growth of vascular endothelial cells stimulated with hepatocyte growth factor. To be noted: HUVEC, HGF stimulated, third day, Cell Counting Kit-8, read-out: IC50 (cell proliferation activity). Type of assay: cell-based. The procedure: Human umbilical vein endothelial cells (HUVECs) were isolated according to the reported method (Shin Seikagaku Jikken Koza, “Cell culturing techniques”, p 197-202), and then cultured in a 5% CO2 incubator (37° C.) using EGM-2 medium (purchased from Clonetics) until the cells reached confluency.
HUVECs were suspended in a serum-free medium for endothelial cell culture (SFM, purchased from GIBCO RBL) containing 2% FBS. The cell suspension (2×10^4 cells/ml) was put in a cell culturing 96-well plate (purchased from NUNC, Production No. 167008) at 0.1 ml/well, and then cultured in a 5% CO2 incubator (37° C.) overnight. After the culture, each well was supplied with 50 μl of the test substance diluted with a 2% FBS-containing serum-free medium for endothelial cell culture and 50 μl of HGF (purchased from R&D) diluted at a concentration of 120 ng/ml with a 2% FBS-containing serum-free medium for endothelial cell culture, followed by culturing in a 5% CO2 incubator (37° C.). On the third day after the addition of the test substance, each well was supplied with 10 μl of Cell Counting Kit-8 (purchased from DOJINDO, Production No. 343-07623), and then the plate was incubated in a 5% CO2 incubator (37° C.) for about 2 hours. After the incubation, using a Plate Reader MTP-500 (Corona Electric), the absorbance of each well was determined at a measurement wavelength of 450 nm and a reference wavelength of 660 nm. While defining the absorbance of a well supplied with HGF and no test substance as 100% cell proliferation activity and the absorbance of the well supplied with no test substance and no HGF as 0% cell proliferation activity, the cell proliferation activity ratio (%) was calculated for each cell.
In general terms: Tetrazolium dyes change colour on reduction, which living cells bring about.

T1 sequence (P08581 956-1390 limits assumed): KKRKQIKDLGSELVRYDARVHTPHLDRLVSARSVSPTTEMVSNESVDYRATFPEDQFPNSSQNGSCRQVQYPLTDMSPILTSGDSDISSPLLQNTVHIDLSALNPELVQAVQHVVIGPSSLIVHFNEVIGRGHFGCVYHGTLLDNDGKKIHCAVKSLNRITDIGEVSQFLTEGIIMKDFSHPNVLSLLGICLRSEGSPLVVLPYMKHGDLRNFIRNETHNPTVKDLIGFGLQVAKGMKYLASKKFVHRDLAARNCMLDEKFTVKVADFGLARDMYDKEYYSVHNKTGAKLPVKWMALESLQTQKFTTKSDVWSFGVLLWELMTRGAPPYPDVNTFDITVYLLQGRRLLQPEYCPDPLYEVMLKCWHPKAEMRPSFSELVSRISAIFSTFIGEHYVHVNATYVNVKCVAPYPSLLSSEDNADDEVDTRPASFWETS

For the molecule `CN(C)C1CN(C2CCN(C(=O)Nc3cc(Oc4ccc(NC(=O)C5(C(=O)Nc6ccc(F)cc6)CC5)cc4F)ccn3)CC2)C1` [Example 21, N-[4-({2-[({4-[3-(Dimethylamino)azetidin-1-yl]piperidin-1-yl}carbonyl)amino]pyridin-4-yl}oxy)-3-fluorophenyl]-N′-(4-fluorophenyl)cyclopropane-1,1-dicarboxamide], the IC50 came out at 62 nM in assay [1] and 24 nM in assay [2].

As for `CN1CCC(N(C)C(=O)Nc2cc(Oc3ccc(NC(=O)C4(C(=O)Nc5ccc(F)cc5)CC4)cc3)ccn2)CC1` [Example 12], the IC50 was 37 nM in assay [1] and 23 nM in assay [2].

As for `O=C(Nc1cc(Oc2ccc(NC(=O)C3(C(=O)Nc4ccc(F)cc4)CC3)cc2F)ccn1)N1CCC(N2CCC2)CC1` [Example 11, N-{4-[(2-{[(4-Azetidin-1-ylpiperidin-1-yl)carbonyl]amino}pyridin-4-yl)oxy]-3-fluorophenyl}-N′-(4-fluorophenyl)cyclopropane-1,1-dicarboxamide], the values for the IC50 in assay [1] and in assay [2] were 46 nM and 33 nM, respectively.

Take `CN(C)CCN1CCN(C(=O)Nc2cc(Oc3ccc(NC(=O)C4(C(=O)Nc5ccc(F)cc5)CC4)c(F)c3)ccn2)CC1` [Example 2, N-[4-({2-[({4-[2-(Dimethylamino)ethyl]piperazin-1-yl}carbonyl)amino]pyridin-4-yl}oxy)-2-fluorophenyl]-N′-(4-fluorophenyl)cyclopropane-1,1-dicarboxamide]: the IC50 stood at 55 nM in assay [1] and 18 nM in assay [2].

`CN(C)C1CN(C2CCN(C(=O)Nc3cc(Oc4ccc(NC(=O)C5(C(=O)Nc6ccc(F)cc6)CC5)c(F)c4)ccn3)CC2)C1` [Example 14, N-[4-({2-[({4-[3-(Dimethylamino)azetidin-1-yl]piperidin-1-yl}carbonyl)amino]pyridin-4-yl}oxy)-2-fluorophenyl]-N′-(4-fluorophenyl)cyclopropane-1,1-dicarboxamide]: the values for the IC50 in assay [1] and in assay [2] were 60 nM and 23 nM, respectively.

As to `CN1CCC(N(C)C(=O)Nc2cc(Oc3ccc(NC(=O)C4(C(=O)Nc5ccc(F)cc5)CC4)cc3F)ccn2)CC1` [Example 1, N-(3-Fluoro-4-{[2-({[methyl(1-methylpiperidin-4-yl)amino]carbonyl}amino)pyridin-4-yl]oxy}phenyl)-N′-(4-fluorophenyl)cyclopropane-1.1-dicarboxamide], the IC50 stood at 66 nM in assay [1] and 4.6 nM in assay [2].

Take `O=C(Nc1cc(Oc2ccc(NC(=O)C3(C(=O)Nc4ccc(F)cc4)CC3)c(F)c2)ccn1)N1CCC(N2CCC2)CC1` [Example 9, N-{4-[(2-{[(4-Azetidin-1-ylpiperidin-1-yl)carbonyl]amino}pyridin-4-yl)oxy]-2-fluorophenyl}-N′-(4-fluorophenyl)cyclopropane-1,1-dicarboxamide]: the IC50 in assay [1] came out at 53 nM; in assay [2], 25 nM.

With `CN(C)CCN1CCN(C(=O)Nc2cc(Oc3ccc(NC(=O)C4(C(=O)Nc5ccc(F)cc5)CC4)cc3F)ccn2)CC1` [Example 7, N-[4-({2-[({4-[2-(Dimethylamino)ethyl]piperazin-1-yl}carbonyl)amino]pyridin-4-yl}oxy)-3-fluorophenyl]-N′-(4-fluorophenyl)cyclopropane-1,1-dicarboxamide], the IC50 in assay [1] was found to be 51 nM; in assay [2] it was 18 nM.

The record behind these values is patent publication US7855290B2, “Pyridine derivatives and pyrimidine derivatives (3)” (Eisai R&D Management Co., Ltd., priority 2005, dated 2010).
